Assay results published in ChEMBL document CHEMBL1144473, “Selective inhibition of carboxylesterases by isatins, indole-2,3-diones” (J Med Chem, 2007).
Active and inactive are the calls of the source. The calls are words filed in the database; no cut-off is given here.

How the values were obtained:
[1] = Inhibition of human intestinal carboxylesterase expressed in sf21 cells up to 100 uM
[2] = target: T1, Liver carboxylesterase 1 (Homo sapiens, UniProt P23141); test: Inhibition of human liver CE1 expressed in sf21 cells up to 100 uM
T1 sequence (P23141 whole entry): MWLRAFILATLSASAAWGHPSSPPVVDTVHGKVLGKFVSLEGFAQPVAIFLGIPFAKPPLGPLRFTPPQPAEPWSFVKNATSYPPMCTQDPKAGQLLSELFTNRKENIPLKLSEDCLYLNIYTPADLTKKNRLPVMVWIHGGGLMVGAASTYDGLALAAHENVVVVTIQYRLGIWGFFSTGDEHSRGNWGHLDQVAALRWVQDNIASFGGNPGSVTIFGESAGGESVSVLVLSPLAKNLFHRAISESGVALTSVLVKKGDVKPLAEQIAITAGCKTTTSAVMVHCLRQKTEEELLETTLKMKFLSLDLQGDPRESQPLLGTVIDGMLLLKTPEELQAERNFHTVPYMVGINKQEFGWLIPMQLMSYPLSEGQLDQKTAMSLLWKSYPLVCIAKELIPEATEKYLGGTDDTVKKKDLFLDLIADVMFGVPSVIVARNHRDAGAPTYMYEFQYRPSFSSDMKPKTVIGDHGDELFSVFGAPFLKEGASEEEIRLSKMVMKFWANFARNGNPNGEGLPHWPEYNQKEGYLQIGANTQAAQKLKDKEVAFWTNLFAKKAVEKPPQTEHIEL

[3] = Inhibition of rabbit liver carboxylesterase expressed in sf21 cells up to 100 uM; conditions: Oryctolagus cuniculus
[4] = Inhibition of human intestinal carboxylesterase expressed in sf21 cells
[5] = target: T1, Liver carboxylesterase 1; test: Inhibition of human liver CE1 expressed in sf21 cells; type: cell-based
[6] = Inhibition of rabbit liver carboxylesterase expressed in sf21 cells; type: cell-based, Oryctolagus cuniculus
[7] = target: Acetylcholinesterase (Homo sapiens, UniProt P22303)
[8] = target: Cholinesterase (Homo sapiens, UniProt P06276)
Chain of Cholinesterase (P06276 whole entry): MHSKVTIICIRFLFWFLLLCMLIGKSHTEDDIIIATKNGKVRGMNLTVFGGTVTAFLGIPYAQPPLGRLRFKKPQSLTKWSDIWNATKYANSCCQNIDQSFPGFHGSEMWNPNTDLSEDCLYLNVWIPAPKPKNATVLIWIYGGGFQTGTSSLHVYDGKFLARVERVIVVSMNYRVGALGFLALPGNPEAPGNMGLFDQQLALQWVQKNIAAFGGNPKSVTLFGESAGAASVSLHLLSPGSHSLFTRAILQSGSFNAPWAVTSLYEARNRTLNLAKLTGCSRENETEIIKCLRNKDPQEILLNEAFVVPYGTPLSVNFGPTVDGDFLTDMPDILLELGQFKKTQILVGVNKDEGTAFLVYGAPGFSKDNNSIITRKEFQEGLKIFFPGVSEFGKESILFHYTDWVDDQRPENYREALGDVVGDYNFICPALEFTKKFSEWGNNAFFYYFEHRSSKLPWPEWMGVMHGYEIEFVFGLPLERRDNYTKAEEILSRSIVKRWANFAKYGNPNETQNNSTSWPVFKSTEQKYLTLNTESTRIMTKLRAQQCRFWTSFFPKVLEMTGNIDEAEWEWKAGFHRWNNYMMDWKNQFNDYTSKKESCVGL

Chain of Acetylcholinesterase (P22303 whole entry): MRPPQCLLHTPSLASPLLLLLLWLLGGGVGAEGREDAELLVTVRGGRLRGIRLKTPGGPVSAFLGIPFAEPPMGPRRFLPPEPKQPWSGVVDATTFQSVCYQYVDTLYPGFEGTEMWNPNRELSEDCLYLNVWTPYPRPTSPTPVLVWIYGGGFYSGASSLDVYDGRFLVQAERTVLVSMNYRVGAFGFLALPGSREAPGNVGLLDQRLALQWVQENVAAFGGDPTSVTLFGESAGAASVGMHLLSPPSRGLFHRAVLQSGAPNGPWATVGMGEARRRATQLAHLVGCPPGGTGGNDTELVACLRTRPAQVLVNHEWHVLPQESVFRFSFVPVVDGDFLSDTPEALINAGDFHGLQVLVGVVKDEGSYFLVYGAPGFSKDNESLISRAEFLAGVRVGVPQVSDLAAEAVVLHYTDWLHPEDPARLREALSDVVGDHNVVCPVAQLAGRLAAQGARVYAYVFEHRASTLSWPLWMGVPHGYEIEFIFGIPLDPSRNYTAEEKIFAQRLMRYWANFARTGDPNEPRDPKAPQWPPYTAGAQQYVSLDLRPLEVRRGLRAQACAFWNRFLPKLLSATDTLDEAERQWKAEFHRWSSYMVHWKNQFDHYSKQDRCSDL

Compound | Activity [1] | Activity [2] | Activity [3] | Ki [4] | Ki [5] | Ki [6] | Ki [7] | Ki [8]
O=C1c2ccccc2C(=O)N1c1ccccc1 [N-PHENYL-PHTHALIMIDE] | inactive | Not Active | inactive |  |  |  |  | 
c1ccc2[nH]ccc2c1 [INDOLE] | inactive | Not Active | inactive |  |  |  |  | 
O=C1Nc2ccccc2/C1=N/O | inactive | Not Active | inactive |  |  |  |  | 
c1ccc2c(c1)CCC2 | inactive | Not Active | inactive |  |  |  |  | 
O=C1CC(=O)c2ccccc21 | inactive | Not Active | inactive |  |  |  |  | 
N/N=C1\C(=O)Nc2ccccc21 | inactive | Not Active | inactive |  |  |  |  | 
c1ccc2c(c1)CCN2 [INDOLINE] | inactive | Not Active | inactive |  |  |  |  | 
C1=Cc2ccccc2C1 [INDENE] | inactive | Not Active | inactive |  |  |  |  | 
O=C(CN1C(=O)C(=O)c2ccccc21)Nc1ccc(O)cc1 |  |  |  | > 100 µM | > 100 µM | > 100 µM | > 100 µM | > 100 µM
O=C1NC(=O)c2ccccc21 [PHTHALIMIDE] | inactive | Not Active | inactive |  |  |  |  | 
